Assay results reported in US8785470B2, “Heterocyclic compounds and uses thereof” (Infinity Pharmaceuticals, Inc., priority 2011, dated 2014).
Where two headings read alike, the source gives them in different places.

How the values were obtained:
PI3Kα = target: T1, PI3Kα (Homo sapiens, UniProt P42336); assay: PI3-Kinase HTRF assay, PI3Kα; type: biochemical; conditions: bins Greater than 10 μM and Greater than 1 μM to 10 μM; 10 μM ATP, PIP2 at 10 μM; read-out: IC50 P13Kα
T1 construct: purchased Millipore Corporation 14-602-K
In short: (§1)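 Competitive time-resolved FRET readout of PIP3 formed from 10 μM PIP2 with 10 μM ATP, 1 h at room temperature, by each recombinant human isoform (α, β, γ, δ; 0.25-0.3 μg/ml). Compound (2% DMSO final) was preincubated 15 min with enzyme and substrate; IC50 fitted over 20 μM–0.1 nM, 12 points.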

PI3Kβ = target: T2, PI3Kβ (Homo sapiens, UniProt P42338); assay: PI3-Kinase HTRF assay, PI3Kβ; type: biochemical; conditions: bins Greater than 10 μM and Greater than 1 μM to 10 μM; 10 μM ATP, PIP2 at 10 μM
T2 construct: purchased Millipore Corporation 14-603-K
In short: as §1

[1] = tested on: phospho-AKT in RAJI cells (PI3Kδ); assay: PI3Kδ selective assay, phospho-AKT in RAJI cells; type: cell-based; conditions: RAJI cells stimulated with anti-human IgM; read-out: IC50 for phospho-AKT, RAJI cell model
In short: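 Serum-starved RAJI B-lymphoma cells stimulated with anti-human IgM to trigger B-cell receptor signaling; compound effect read as reduction of phospho-AKT, for example detected with phospho-AKT antibodies.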

[2] = tested on: phospho-AKT in RAW 264.7 cells (PI3Kγ); assay: PI3Kγ selective assay, phospho-AKT in RAW 264.7 cells; type: cell-based; conditions: Mus musculus, RAW264.7, stimulated with C5a, read-out: IC50 for phospho-AKT, RAW 264.7 cell model
In short: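 Serum-starved RAW 264.7 macrophages are stimulated with the GPCR agonist C5a and treated with compound before, with or after stimulation. Inhibition is read as reduced C5a-induced phospho-AKT, detected for example with phospho-AKT antibodies.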

[3] = tested on: phospho-AKT in SKOV-3 cells (PI3Kα); assay: PI3Kα selective assay, phospho-AKT in SKOV-3 cells; type: cell-based; conditions: Homo sapiens, SK-OV-3, read-out: IC50 for phospho-AKT, SKOV-3 cell model
Excerpt: (§2) A compound's ability in selectively inhibiting PI3Kα can be assessed using SKOV-3 cells, i.e., human ovarian carcinoma cell line. Briefly, SKOV-3 cells, in which mutant PI3Kα is constitutively active, can be treated with test compounds. Test compounds' ability to inhibit AKT phosphorylation in SKOV-3 cells, therefore, is indicative of selective inhibition of PI3Kα. Thus, by monitoring the reduction of phospho-AKT in SKOV-3 cells (using for example, phospho-AKT antibodies), a compound's potential efficacy in selectively inhibiting PI3Kα can be assessed.
Certain compounds provided herein (e.g., Compounds 5, 49, 138, 326, 328, 354, 359, 389, and 391) were tested in SKOV-3 cell model using procedures as described above.

[4] = tested on: phospho-AKT in 786-O cells (PI3Kβ); assay: PI3Kβ selective assay, phospho-AKT in 786-O cells; type: cell-based; conditions: Homo sapiens, 786-0, read-out: IC50 for phospho-AKT, 786-O cell model
Excerpt: as §2, with “PI3Kβ” for “PI3Kα”, “786-O” for “SKOV-3”, “kidney” for “ovarian”, “PI3Kβ” for “mutant PI3Kα”, “PI3β.” for “PI3Kα.”
Certain compounds provided herein (e.g., Compounds 5, 49, 138, 326, 328, 354, 359, 389, and 391) were tested in 786-O cell model using procedures as described above.

NZB/W model = conditions: profilactic and therapeutic model; reductions in auto-antibody production, kidney damage, improvements in survival; cited from earlier work
Balb/c splenic B cells = assay: B cell activation and proliferation assay; type: cell-based; conditions: Mus musculus, column bins 1 μM to 100 nM (given as 100-1000) and Less than 100 nM, read-out: B cell proliferation EC50
In short: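 Read-out is metabolic activity by Alamar Blue reduction (5 h, 560Ex/590Em) after 72 h at 37° C, reported as IC50 or EC50. Compound (0.2% DMSO) was added 30 min before a cocktail holding 10 μg/ml LPS or 5 μg/ml F(ab′)2 anti-IgM with 2 ng/ml mouse IL4. Cells were purified Balb/c splenic B cells, 50.000 per well.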

PI3Kδ = target: T3, PI3Kδ (Homo sapiens, UniProt O00329); assay: PI3-Kinase HTRF assay, PI3Kδ; type: biochemical; conditions: bins Greater than 10 μM and Greater than 1 μM to 10 μM; 10 μM ATP, PIP2 at 10 μM
T3 construct: purchased Millipore Corporation 14-604-K
Excerpt: (§3) A PI3-Kinase HTRF® assay kit (cat No. 33-016) purchased from Millipore Corporation was used to screen compounds provided herein. This assay used specific, high affinity binding of the GRPI pleckstrin homology (PH) domain to PIP3, the product of a Class 1A or 1B PI3 Kinase acting on its physiological substrate PIP2. During the detection phase of the assay, a complex was generated between the GST-tagged PH domain and biotinylated short chain PIP3. The biotinylated PIP3 and the GST-tagged PH domain recruited fluorophores (Streptavidin-Allophycocyanin and Europium-labeled anti-GST respectively) to form the fluorescence resonance energy transfer (FRET) architecture, generating a stable time-resolved FRET signal. The FRET complex was disrupted in a competitive manner by non-biotinylated PIP3, a product formed in the PI3 Kinase assay.
(§4) PI3 Kinase α, β, γ and δ activity was assayed using the PI3 Kinase HTRF® assay kit (catalogue No. 33-016) purchased from Millipore Corporation. Purified recombinant PI3Kα (catalogue No. 14-602-K), PI3Kβ (catalogue No. 14-603-K), PI3Kγ (catalogue No. 14-558-K) and PI3Kδ (catalogue No. 14-604-K) were obtained from Millipore Corporation. Purified recombinant PI3K enzyme was used to catalyze the phosphorylation of phosphatidylinositol 4,5-bisphosphate (PIP2 at 10 μM) to phosphatidylinositol 3,4,5-trisphosphate (PIP3) in the presence of 10 μM ATP. The assay was carried out in 384-well format and detected using a Perkin Elmer EnVision Xcite Multilabel Reader. Emission ratios were converted into percent inhibitions and imported into GraphPad Prism software. The concentration necessary to achieve inhibition of enzyme activity by 50% (IC50) was calculated using concentrations ranging from 20 μM to 0.1 nM (12-point curve). IC50 values were determined using a nonlinear regression model available in GraphPad Prism 5. […]

[5] = PBS at pH 7.4, 37° C., 24 hours; cited from earlier work
[6] = tested on: leukemic cells from p190 transduced cultures; conditions: about 70 mg/kg twice daily; cited from earlier work
B6.Slez.Sle3z model = conditions: cited from earlier work
[7] = control or reference compounds, 5 μM; cited from earlier work
PI3Kγ = target: T4, PI3Kγ (Homo sapiens, UniProt P48736); assay: PI3-Kinase HTRF assay, PI3Kγ; type: biochemical; conditions: bins Greater than 10 μM and Greater than 1 μM to 10 μM; 10 μM ATP, PIP2 at 10 μM
T4 construct: purchased Millipore Corporation 14-558-K
Excerpt: as §3, §4

[8] = ranges between 1 μM and 10 μM and greater than 10 μM
[9] = range between 100 nM and 1 μM (given as 100-1000)
[10] = ranges less than 100 nM and between 100 nM and 1 μM (given as 100-1000)

T1 sequence (P42336 whole entry): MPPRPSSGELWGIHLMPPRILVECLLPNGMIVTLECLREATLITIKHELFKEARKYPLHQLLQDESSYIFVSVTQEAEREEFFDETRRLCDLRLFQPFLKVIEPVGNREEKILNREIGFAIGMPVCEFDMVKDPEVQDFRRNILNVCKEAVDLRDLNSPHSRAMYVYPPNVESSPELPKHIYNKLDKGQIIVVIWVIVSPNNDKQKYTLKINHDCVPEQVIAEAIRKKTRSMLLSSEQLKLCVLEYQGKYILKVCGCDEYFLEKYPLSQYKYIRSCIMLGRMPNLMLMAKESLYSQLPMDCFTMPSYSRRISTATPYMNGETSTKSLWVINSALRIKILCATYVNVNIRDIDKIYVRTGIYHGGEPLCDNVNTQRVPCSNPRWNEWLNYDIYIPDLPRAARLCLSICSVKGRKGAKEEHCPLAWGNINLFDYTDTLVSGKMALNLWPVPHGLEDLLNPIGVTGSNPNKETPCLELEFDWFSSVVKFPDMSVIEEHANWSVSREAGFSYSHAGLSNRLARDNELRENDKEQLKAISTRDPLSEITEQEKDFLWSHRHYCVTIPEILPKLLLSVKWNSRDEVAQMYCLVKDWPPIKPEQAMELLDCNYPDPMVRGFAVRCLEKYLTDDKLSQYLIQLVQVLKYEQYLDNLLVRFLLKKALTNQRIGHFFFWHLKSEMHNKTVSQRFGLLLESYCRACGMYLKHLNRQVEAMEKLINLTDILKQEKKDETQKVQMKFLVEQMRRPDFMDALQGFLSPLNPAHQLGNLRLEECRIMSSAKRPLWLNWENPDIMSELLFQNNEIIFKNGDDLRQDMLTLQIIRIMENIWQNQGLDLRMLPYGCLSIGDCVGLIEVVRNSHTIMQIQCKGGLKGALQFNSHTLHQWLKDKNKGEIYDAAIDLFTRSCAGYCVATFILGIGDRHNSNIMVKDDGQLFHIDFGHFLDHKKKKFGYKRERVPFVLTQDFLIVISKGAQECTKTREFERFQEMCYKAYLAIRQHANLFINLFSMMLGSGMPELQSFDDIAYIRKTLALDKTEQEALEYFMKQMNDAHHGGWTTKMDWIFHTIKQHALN
T1 sequence (P27986 whole entry partner): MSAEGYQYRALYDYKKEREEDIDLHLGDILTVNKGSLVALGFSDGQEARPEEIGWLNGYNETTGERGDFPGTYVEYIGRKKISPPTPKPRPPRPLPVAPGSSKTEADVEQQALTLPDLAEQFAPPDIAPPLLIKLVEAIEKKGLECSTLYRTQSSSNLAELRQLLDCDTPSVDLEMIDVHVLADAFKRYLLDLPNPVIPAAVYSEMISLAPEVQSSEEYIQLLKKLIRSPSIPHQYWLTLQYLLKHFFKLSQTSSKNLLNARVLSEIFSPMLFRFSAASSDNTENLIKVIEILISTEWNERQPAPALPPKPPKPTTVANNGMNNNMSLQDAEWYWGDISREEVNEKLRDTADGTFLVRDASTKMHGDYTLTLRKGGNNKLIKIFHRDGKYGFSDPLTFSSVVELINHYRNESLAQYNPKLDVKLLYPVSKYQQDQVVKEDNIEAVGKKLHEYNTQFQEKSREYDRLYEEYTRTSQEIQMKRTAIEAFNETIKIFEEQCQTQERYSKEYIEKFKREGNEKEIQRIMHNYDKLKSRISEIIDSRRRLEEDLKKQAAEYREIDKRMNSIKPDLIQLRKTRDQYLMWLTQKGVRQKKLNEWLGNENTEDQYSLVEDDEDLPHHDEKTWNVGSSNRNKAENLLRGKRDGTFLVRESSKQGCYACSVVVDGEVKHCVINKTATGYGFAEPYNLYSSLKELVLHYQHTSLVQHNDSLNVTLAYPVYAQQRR
T2 sequence (P42338 whole entry): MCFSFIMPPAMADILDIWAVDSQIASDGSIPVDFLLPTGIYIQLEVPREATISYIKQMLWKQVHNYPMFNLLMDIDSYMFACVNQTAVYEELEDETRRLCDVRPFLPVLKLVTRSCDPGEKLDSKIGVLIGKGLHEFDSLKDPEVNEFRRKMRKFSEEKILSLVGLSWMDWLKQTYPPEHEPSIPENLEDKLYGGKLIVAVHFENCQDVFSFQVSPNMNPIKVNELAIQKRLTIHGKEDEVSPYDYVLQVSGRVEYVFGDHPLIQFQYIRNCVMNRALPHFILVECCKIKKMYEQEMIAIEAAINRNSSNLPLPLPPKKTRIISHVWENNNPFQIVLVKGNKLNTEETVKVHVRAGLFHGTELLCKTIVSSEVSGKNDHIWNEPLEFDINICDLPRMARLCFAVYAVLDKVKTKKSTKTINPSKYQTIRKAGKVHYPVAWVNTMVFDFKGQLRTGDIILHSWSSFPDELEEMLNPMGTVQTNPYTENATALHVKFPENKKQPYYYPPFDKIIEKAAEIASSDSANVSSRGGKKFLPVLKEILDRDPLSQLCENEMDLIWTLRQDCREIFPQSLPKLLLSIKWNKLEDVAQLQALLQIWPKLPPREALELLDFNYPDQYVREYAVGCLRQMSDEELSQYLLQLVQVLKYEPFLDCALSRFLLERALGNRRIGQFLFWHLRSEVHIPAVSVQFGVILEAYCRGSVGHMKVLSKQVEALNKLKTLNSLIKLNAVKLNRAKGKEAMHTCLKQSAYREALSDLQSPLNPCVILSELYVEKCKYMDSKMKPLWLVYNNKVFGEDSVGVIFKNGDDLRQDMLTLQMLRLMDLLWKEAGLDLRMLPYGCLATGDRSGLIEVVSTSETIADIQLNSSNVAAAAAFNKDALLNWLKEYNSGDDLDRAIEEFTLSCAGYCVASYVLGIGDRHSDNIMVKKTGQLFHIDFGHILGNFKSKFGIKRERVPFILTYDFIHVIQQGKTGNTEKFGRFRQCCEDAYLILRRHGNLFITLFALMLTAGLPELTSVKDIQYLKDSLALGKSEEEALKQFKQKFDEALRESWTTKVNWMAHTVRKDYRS
T2 sequence (P27986 whole entry partner): as the sequence (P27986 whole entry partner) above
T4 sequence (P48736 whole entry): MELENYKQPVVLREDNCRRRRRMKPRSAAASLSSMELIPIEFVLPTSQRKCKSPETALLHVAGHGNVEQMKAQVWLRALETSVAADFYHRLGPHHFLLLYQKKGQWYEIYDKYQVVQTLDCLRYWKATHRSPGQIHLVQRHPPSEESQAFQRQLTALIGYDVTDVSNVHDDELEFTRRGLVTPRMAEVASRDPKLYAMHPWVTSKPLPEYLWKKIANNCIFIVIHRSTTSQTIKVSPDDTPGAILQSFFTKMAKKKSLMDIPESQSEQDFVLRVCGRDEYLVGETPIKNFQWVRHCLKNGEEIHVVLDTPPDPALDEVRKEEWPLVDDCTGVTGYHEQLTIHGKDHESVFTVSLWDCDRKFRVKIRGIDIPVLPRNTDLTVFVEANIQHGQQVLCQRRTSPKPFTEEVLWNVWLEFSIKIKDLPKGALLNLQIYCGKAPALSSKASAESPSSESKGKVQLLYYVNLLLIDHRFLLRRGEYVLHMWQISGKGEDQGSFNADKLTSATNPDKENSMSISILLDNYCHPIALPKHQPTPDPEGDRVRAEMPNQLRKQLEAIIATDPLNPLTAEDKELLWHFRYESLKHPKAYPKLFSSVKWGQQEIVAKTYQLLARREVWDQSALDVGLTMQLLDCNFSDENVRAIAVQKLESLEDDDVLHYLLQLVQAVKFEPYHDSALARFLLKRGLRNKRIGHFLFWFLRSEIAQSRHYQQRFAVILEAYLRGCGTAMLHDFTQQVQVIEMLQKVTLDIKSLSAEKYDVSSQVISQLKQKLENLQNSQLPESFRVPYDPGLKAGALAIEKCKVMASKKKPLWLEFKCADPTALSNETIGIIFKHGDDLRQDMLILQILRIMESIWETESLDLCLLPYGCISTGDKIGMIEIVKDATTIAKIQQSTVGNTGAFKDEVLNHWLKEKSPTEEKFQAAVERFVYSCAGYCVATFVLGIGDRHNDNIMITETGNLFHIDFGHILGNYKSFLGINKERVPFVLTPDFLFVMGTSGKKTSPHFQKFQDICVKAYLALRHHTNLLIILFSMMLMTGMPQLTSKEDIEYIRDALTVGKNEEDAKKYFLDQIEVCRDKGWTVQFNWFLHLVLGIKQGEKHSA
T3 sequence (O00329 whole entry): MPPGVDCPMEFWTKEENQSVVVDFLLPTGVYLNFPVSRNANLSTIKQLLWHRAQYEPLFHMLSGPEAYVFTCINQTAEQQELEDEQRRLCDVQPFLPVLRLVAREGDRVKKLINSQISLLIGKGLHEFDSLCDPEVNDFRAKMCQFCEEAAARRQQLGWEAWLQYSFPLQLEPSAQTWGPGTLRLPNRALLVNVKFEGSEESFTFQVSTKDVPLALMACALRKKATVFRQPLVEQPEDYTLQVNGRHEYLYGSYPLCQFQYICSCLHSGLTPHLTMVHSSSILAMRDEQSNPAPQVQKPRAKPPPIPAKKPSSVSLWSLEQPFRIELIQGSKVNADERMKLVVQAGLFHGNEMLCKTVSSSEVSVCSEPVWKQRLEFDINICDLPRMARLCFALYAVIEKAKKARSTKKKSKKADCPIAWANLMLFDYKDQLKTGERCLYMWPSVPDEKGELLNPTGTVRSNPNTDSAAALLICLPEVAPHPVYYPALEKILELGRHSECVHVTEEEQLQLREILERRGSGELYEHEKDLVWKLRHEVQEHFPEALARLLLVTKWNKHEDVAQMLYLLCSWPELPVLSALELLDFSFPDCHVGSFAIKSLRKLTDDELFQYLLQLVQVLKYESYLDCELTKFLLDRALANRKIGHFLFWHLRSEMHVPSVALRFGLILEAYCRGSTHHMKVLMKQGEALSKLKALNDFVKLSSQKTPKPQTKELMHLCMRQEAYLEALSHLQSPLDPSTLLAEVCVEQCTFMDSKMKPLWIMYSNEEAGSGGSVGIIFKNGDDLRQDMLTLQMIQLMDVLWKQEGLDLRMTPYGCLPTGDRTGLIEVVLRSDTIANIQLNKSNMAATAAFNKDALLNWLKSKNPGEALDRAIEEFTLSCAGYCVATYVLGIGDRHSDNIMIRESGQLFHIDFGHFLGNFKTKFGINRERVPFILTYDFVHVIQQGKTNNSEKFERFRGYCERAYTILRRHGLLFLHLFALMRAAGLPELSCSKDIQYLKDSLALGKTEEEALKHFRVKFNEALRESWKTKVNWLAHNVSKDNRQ
T3 sequence (P27986 whole entry partner): as the sequence (P27986 whole entry partner) above

IC50 (PI3Kα) | IC50 (PI3Kβ) | IC50 [1] | IC50 [3, 8] | IC50 [2, 10] | IC50 [4, 8] | Structure (SMILES) | other results
1000 to 10000 nM | 1000 to 10000 nM | < 100 nM | 1000 to 10000 nM |  |  | CC(C)n1c([C@H](C)Nc2ncnc(N)c2C#N)cc2cccc(-c3ccc(=O)n(C)c3)c2c1=O [Compound 359] | IC50 ([2]; range between 1 μM and 10 μM): 1000 to 10000 nM; IC50 [4, 9]: 100 to 1000 nM
 |  |  |  |  |  | CC(C)C[C@H](NC(=O)[C@H](Cc1ccccc1)NC(=O)c1cnccn1)B(O)O [Bortezimib, bortezomib] | blocking disease in the NZB/W model (NZB/W model): effective at blocking disease
 | 1000 to 10000 nM | < 100 nM | 1000 to 10000 nM | < 100 nM | 1000 to 10000 nM | COc1cc(-c2cccc3cc([C@H](C)Nc4nc(N)ncc4C#N)n(-c4ccccc4)c(=O)c23)ccn1 [Compound 49] | EC50 (Balb/c splenic B cells): < 100 nM
1000 to 10000 nM |  | < 100 nM | 1000 to 10000 nM | < 100 nM | > 10000 nM | COc1ncc(-c2cccc3cc([C@H](C)Nc4nc(N)ncc4C#N)n(-c4ccccc4)c(=O)c23)cn1 [Compound 5, (S)-2-amino-4-((1-(8-(2-methoxypyrimidin-5-yl)-1-oxo-2-phenyl-1,2-dihydroisoquinolin-3-yl)ethyl)amino)pyrimidine-5-carbonitrile] | EC50 (Balb/c splenic B cells): < 100 nM
 |  | < 100 nM | > 10000 nM |  | 1000 to 10000 nM | C[C@H](Nc1nc(N)ncc1C#N)c1cc2cccc(Cl)c2c(C(=O)NC2CCOCC2)n1 [Compound 354] | IC50 (PI3Kδ): 1000 to 10000 nM; IC50 ([2]; range between 1 μM and 10 μM): 1000 to 10000 nM
1000 to 10000 nM | 1000 to 10000 nM | < 100 nM | 1000 to 10000 nM | 100 to 1000 nM | 1000 to 10000 nM | COc1ncc(-c2cccc3cc([C@H](C)Nc4nc(N)ncc4-c4cncs4)n(-c4ccccc4)c(=O)c23)cn1 [Compound 389] | 
 |  |  |  |  |  | O=C(O)CCCc1ccc(N(CCCl)CCCl)cc1 [chlorambucil] | chemical stability [5]: largely hydrolyzed
 |  |  |  |  |  | Cc1ccc(NC(=O)c2ccc(CN3CCN(C)CC3)cc2)cc1Nc1nccc(-c2cccnc2)n1 [imatinib] | leukemogenesis [6]: delay but not cure leukemogenesis
1000 to 10000 nM | 1000 to 10000 nM | < 100 nM |  | < 100 nM | 1000 to 10000 nM | CCOc1nc(-c2cnc(N)nc2N[C@@H](C)c2cc3cccc(-c4ccc(=O)n(C)c4)c3c(=O)n2-c2ccccc2)cs1 [Compound 138] | IC50 [3, 9]: 100 to 1000 nM
 |  |  |  |  |  | CO[C@H]1C[C@@H]2CC[C@@H](C)[C@@](O)(O2)C(=O)C(=O)N2CCCC[C@H]2C(=O)O[C@H]([C@H](C)C[C@@H]2CC[C@@H](OCCO)[C@H](OC)C2)CC(=O)[C@H](C)/C=C(\C)[C@@H](O)[C@@H](OC)C(=O)[C@H](C)C[C@H](C)/C=C/C=C/C=C/1C [RAD001, everolimus] | lupus symptoms (B6.Slez.Sle3z model): ameliorate lupus symptoms
1000 to 10000 nM | 1000 to 10000 nM | < 100 nM | 1000 to 10000 nM | 100 to 1000 nM |  | CC(C)n1c([C@H](C)Nc2nc(N)ncc2C#N)cc2cccc(-c3ccc(=O)n(C)c3)c2c1=O [Compound 326] | IC50 [4, 9]: 100 to 1000 nM
 |  |  |  |  |  | CC(C)[N+](C)(CCOC(=O)C1c2ccccc2Oc2ccccc21)C(C)C [propantheline] | plasma stability [7]: intermediate plasma stability
 |  |  |  |  |  | CCCOc1cc(N)ccc1C(=O)OCCN(CC)CC [propoxycaine] | plasma stability [7]: low plasma stability
 |  | < 100 nM |  | 100 to 1000 nM | 1000 to 10000 nM | Cc1ncc(-c2cccc3cc([C@H](C)Nc4nc(N)ncc4C#N)n(C(C)C)c(=O)c23)cn1 [Compound 328] | IC50 (PI3Kγ): 1000 to 10000 nM; IC50 [3, 9]: 100 to 1000 nM
